From US8962596B2 (Array BioPharma Inc., priority 2010, dated 2015)

How the values were obtained:
Assay type in all cases: biochemical
JAK2 = biological target: T1, JAK2 (Homo sapiens, UniProt O60674); experiment: JAK2 Inhibition Assay (Omnia kinase fluorescence peptide substrate assay); conditions: averaged IC50 ranges; assay of Example C; 25 μM (Km app) or 1 mM ATP, 5 nM JAK2
T1 construct: purchased Invitrogen Corporation, Carlsbad, Calif; PV4288
Method in brief: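 5 nM JAK2 phosphorylated 10 μM Omnia Y7 peptide with ATP at 25 μM (Km app) or 1 mM, in 25 mM HEPES pH 7.4, 10 mM MgCl2, 0.01% Triton X-100, 1 mM DTT, 2% DMSO. Fluorescence (360/485 nm) was read every 50 s for 45 min. 10-point 3-fold series from 10 μM; POC versus uninhibited and background controls, 4-parameter logistic IC50.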

Human Tyk2 kinase domain = biological target: T2, Human Tyk2 kinase domain (Homo sapiens, UniProt P29597); experiment: Tyk2 Inhibition Assay (Omnia kinase fluorescence peptide substrate assay); conditions: averaged IC50 ranges; assay of Example A; 10 μM (Km app) or 1 mM ATP, 2 nM Tyk2
T2 construct: comprising amino acids 886 to 1187 with 10 additional histidine residues; 10xHis (histidine tag) (C, cleaved yes); made in house
T2 sequence (P29597 886-1187): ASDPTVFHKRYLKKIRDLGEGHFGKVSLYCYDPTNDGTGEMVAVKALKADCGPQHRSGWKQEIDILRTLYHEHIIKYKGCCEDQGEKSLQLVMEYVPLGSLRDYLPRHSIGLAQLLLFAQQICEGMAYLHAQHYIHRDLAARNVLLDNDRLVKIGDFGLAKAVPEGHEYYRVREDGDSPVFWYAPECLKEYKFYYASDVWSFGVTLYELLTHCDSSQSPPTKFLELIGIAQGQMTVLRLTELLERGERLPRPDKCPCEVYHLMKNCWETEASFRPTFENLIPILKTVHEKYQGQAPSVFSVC
Method in brief: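 2 nM His-tag-cleaved kinase domain (aa 886–1187) with 8 μM Omnia Y12 peptide, 10 μM (Km app) or 1 mM ATP, pH 7.4 HEPES/10 mM MgCl2, 2% DMSO. Fluorescence (ex 360/em 485 nm) every 50 s for 45 min; IC50 from 4-parameter fit of POC, top dose 10 μM.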

JAK3 = biological target: T3, JAK3 (Homo sapiens, UniProt P52333); experiment: JAK3 Inhibition Assay (Omnia kinase fluorescence peptide substrate assay); conditions: averaged IC50 ranges; assay of Example D; 10 μM (Km app) or 1 mM ATP, 2.5 nM JAK3
T3 construct: purchased Invitrogen Corporation, Carlsbad, Calif; PV4080
T3 sequence (P52333 1-1124): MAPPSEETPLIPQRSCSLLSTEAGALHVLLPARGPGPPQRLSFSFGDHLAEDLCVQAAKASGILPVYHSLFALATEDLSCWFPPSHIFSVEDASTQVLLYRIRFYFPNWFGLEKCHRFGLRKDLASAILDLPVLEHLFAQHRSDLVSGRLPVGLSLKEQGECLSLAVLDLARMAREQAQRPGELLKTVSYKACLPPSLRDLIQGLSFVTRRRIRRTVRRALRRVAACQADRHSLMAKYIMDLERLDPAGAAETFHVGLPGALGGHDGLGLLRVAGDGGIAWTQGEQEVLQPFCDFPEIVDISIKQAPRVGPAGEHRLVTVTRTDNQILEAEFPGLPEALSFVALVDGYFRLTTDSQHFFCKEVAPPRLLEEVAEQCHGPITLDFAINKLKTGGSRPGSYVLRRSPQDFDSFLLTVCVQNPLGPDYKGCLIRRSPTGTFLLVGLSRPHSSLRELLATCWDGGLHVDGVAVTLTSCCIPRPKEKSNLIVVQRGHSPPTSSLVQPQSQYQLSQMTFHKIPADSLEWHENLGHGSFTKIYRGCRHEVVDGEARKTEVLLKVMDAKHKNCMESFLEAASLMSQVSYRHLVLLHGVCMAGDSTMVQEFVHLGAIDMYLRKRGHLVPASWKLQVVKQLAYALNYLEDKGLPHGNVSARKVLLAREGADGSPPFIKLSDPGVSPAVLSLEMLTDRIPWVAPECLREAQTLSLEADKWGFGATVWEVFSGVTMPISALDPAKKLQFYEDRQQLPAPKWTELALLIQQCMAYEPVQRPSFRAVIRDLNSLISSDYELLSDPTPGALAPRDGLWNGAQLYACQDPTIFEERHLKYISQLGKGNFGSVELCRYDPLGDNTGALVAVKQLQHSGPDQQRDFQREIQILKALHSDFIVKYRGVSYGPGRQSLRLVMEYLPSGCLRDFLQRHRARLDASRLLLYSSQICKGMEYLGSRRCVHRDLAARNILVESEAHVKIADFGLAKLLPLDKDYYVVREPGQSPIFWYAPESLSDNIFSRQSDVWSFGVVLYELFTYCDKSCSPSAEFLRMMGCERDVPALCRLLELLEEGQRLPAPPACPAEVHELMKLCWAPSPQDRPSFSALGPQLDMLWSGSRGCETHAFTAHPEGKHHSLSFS
Method in brief: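 Kinase at 2.5 nM with 10 µM Omnia Y7 peptide and 10 µM (Km app) or 1 mM ATP in 25 mM HEPES pH 7.4, 10 mM MgCl2, 1 mM DTT, 0.01% Triton X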

JAK1 = biological target: T4, JAK1 (Homo sapiens, UniProt P23458); experiment: JAK1 Inhibition Assay (Omnia kinase fluorescence peptide substrate assay); conditions: averaged IC50 ranges; assay of Example B; 40 μM (Km app) or 1 mM ATP, 15 nM JAK1
T4 construct: purchased Invitrogen Corporation, Carlsbad, Calif; PV4775
T4 sequence (P23458 whole entry): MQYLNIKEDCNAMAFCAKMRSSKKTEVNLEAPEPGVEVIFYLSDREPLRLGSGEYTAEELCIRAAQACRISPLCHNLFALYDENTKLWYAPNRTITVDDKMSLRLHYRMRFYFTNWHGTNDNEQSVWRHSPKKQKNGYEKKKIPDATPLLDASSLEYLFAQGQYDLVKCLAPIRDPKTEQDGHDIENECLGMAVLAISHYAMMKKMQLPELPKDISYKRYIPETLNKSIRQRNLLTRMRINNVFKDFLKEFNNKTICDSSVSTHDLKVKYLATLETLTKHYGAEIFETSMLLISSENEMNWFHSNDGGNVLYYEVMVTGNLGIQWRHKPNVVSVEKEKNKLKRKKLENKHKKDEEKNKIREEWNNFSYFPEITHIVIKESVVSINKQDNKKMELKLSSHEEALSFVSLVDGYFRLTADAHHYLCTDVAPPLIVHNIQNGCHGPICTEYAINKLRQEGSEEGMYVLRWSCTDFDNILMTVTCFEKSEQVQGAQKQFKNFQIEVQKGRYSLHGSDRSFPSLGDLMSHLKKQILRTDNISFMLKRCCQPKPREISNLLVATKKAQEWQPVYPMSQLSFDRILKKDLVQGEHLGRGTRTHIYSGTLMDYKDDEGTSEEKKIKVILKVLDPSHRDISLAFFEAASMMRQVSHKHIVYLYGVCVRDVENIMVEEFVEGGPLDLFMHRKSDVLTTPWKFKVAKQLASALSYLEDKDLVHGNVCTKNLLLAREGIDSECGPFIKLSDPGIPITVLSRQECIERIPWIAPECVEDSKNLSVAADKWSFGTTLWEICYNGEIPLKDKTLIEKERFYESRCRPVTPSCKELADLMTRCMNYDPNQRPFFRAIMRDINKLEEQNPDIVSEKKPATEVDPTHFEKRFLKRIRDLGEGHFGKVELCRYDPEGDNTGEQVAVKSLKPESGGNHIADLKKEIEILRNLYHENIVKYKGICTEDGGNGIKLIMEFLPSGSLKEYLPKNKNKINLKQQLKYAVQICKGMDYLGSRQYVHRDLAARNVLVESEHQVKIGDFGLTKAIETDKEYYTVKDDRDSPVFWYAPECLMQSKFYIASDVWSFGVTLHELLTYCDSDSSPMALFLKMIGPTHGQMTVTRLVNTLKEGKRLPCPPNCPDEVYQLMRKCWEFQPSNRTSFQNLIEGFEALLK

T1 sequence (O60674 whole entry): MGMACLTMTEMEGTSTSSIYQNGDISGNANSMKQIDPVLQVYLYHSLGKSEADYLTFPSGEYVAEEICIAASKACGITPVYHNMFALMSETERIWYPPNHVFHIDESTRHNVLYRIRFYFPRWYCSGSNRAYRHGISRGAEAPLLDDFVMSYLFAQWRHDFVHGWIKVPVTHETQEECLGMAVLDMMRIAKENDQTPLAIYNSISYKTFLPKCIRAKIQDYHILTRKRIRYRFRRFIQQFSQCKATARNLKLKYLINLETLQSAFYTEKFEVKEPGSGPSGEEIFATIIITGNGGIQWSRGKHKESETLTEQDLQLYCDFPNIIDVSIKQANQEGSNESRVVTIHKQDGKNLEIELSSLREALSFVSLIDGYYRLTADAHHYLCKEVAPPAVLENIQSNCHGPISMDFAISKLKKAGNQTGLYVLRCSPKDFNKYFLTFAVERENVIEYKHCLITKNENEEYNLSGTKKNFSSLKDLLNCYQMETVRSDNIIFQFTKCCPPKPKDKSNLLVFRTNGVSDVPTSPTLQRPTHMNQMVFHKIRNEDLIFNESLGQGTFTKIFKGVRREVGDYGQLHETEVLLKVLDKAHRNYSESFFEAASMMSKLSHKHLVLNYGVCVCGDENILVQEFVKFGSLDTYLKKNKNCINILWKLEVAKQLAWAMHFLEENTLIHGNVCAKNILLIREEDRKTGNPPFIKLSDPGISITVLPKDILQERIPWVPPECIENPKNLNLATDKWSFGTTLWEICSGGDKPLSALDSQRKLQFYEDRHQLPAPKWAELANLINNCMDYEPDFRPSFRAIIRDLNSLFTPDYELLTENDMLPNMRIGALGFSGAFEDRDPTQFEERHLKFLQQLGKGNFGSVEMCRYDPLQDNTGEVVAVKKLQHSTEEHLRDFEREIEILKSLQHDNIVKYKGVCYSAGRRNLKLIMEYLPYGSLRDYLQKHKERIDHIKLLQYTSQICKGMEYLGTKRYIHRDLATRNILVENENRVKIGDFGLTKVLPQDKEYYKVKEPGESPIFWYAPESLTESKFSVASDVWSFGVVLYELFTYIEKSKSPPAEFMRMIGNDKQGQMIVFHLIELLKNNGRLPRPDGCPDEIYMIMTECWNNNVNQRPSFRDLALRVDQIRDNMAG

Compound | IC50 (JAK2) | IC50 (Human Tyk2 kinase domain) | IC50 (JAK3) | IC50 (JAK1)
Cn1cc(-c2cc3nccn3c(-c3cnn(C4(CC#N)CN(CCC#N)C4)c3)n2)cn1 [Example 78, 3-(3-(cyanomethyl)-3-(4-(7-(1-methyl-1H-pyrazol-4-yl)imidazo[1,2-c]pyrimidin-5-yl)-1H-pyrazol-1-yl)azetidin-1-yl)propanenitrile] | 100 to 1000 nM | 10 to 100 nM | > 1000 nM | 100 to 1000 nM
CCN1CCC(CC#N)(n2cc(-c3nc(-c4cnn(C)c4)cc4nccn34)cn2)CC1 [Example 29, 2-(1-ethyl-4-(4-(7-(1-methyl-1H-pyrazol-4-yl)imidazo[1,2-c]pyrimidin-5-yl)-1H-pyrazol-1-yl)piperidin-4-yl)acetonitrile] | > 1000 nM | 100 to 1000 nM | > 1000 nM | > 1000 nM
CC(C)N1CC(CC#N)(n2cc(-c3nc(-c4cnn(C)c4)cc4nccn34)cn2)C1 [Example 82, 2-(1-isopropyl-3-(4-(7-(1-methyl-1H-pyrazol-4-yl)imidazo[1,2-c]pyrimidin-5-yl)-1H-pyrazol-1-yl)azetidin-3-yl)acetonitrile] | 100 to 1000 nM | 10 to 100 nM | > 1000 nM | > 1000 nM
N#CCC1(n2cc(-c3nc(-c4cnn(C5COC5)c4)cc4nccn34)cn2)CN(CC(F)(F)C(F)(F)F)C1 [Example 157, 2-(3-(4-(7-(1-(oxetan-3-yl)-1H-pyrazol-4-yl)imidazo[1,2-c]pyrimidin-5-yl)-1H-pyrazol-1-yl)-1-(2,2,3,3,3-pentafluoropropyl)azetidin-3-yl)acetonitrile] | 10 to 100 nM | 10 to 100 nM | > 1000 nM | 100 to 1000 nM
Cn1cc(-c2cc3nccn3c(-c3cnn(C4(CC#N)CCN(CC(F)(F)F)CC4)c3)n2)cn1 [Example 31, 2-(4-(4-(7-(1-methyl-1H-pyrazol-4-yl)imidazo[1,2-c]pyrimidin-5-yl)-1H-pyrazol-1-yl)-1-(2,2,2-trifluoroethyl)piperidin-4-yl)acetonitrile] | 100 to 1000 nM | 10 to 100 nM | > 1000 nM | 100 to 1000 nM
N#CCC1(n2cc(-c3nc(-c4cnn(C5COC5)c4)cc4ncc(Cl)n34)cn2)CN(CC(F)(F)F)C1 [Example 153, 2-(3-(4-(3-chloro-7-(1-(oxetan-3-yl)-1H-pyrazol-4-yl)imidazo[1,2-c]pyrimidin-5-yl)-1H-pyrazol-1-yl)-1-(2,2,2-trifluoroethyl)azetidin-3-yl)acetonitrile] | 10 to 100 nM | < 10 nM | 100 to 1000 nM | 100 to 1000 nM
CN1CCC(c2ccc(-c3cc4nccn4c(-c4cnn(C(CC#N)C5CCCC5)c4)n3)cc2)CC1 (single isomer, unassigned) [Example 111, 3-cyclopentyl-3-(4-(7-(4-(1-methylpiperidin-4-yl)phenyl)imidazo[1,2-c]pyrimidin-5-yl)-1H-pyrazol-1-yl)propanenitrile] | 100 to 1000 nM | 10 to 100 nM | 100 to 1000 nM | 100 to 1000 nM
Cc1cc(-c2cc3nccn3c(-c3cnn(C(CC#N)C4CC4)c3)n2)ccn1 (centres unmarked) [Example 50, 3-cyclopropyl-3-(4-(7-(2-methylpyridin-4-yl)imidazo[1,2-c]pyrimidin-5-yl)-1H-pyrazol-1-yl)propanenitrile] | 100 to 1000 nM | 10 to 100 nM | > 1000 nM | 100 to 1000 nM
Cn1cc(-c2cc3nccn3c(-c3cnn(C(CC#N)c4cncc(Br)c4)c3)n2)cn1 (centres unmarked) [Example 10, 3-(5-bromopyridin-3-yl)-3-(4-(7-(1-methyl-1H-pyrazol-4-yl)imidazo[1,2-c]pyrimidin-5-yl)-1H-pyrazol-1-yl)propanenitrile] | 10 to 100 nM | < 10 nM | 100 to 1000 nM | 10 to 100 nM
CC(C)S(=O)(=O)N1CC(CC#N)(n2cc(-c3nc(-c4cnn(C)c4)cc4nccn34)cn2)C1 [Example 91, 2-(1-(Isopropylsulfonyl)-3-(4-(7-(1-methyl-1H-pyrazol-4-yl)imidazo[1,2-c]pyrimidin-5-yl)-1H-pyrazol-1-yl)azetidin-3-yl)acetonitrile] | 100 to 1000 nM | 10 to 100 nM | > 1000 nM | 100 to 1000 nM

Other lines, results leading:

IC50 (JAK2) | IC50 (Human Tyk2 kinase domain) | IC50 (JAK3) | IC50 (JAK1) | Compound
10 to 100 nM | 10 to 100 nM | 100 to 1000 nM | 10 to 100 nM | Cn1cc(-c2cc3nccn3c(-c3cnn(C(CC#N)c4ccc(Cl)cc4)c3)n2)cn1 (centres unmarked) [Example 14, 3-(4-chlorophenyl)-3-(4-(7-(1-methyl-1H-pyrazol-4-yl)imidazo[1,2-c]pyrimidin-5-yl)-1H-pyrazol-1-yl)propanenitrile]
10 to 100 nM | < 10 nM | 100 to 1000 nM | 100 to 1000 nM | Cn1cc(-c2cc3nccn3c(-c3cnn(C4(CC#N)CC5(CCCCC5)C4)c3)n2)cn1 [Example 151, 2-(2-(4-(7-(1-methyl-1H-pyrazol-4-yl)imidazo[1,2-c]pyrimidin-5-yl)-1H-pyrazol-1-yl)spiro[3.5]nonan-2-yl)acetonitrile]
10 to 100 nM | < 10 nM | 100 to 1000 nM | 10 to 100 nM | N#CCC(C1CC1)n1cc(-c2nc(-c3cnn(C4CCC4)c3)cc3nccn23)cn1 (centres unmarked) [Example 42, 3-(4-(7-(1-cyclobutyl-1H-pyrazol-4-yl)imidazo[1,2-c]pyrimidin-5-yl)-1H-pyrazol-1-yl)-3-cyclopropylpropanenitrile]
< 10 nM | < 10 nM | 100 to 1000 nM | 10 to 100 nM | Cn1cc(-c2cc3nccn3c(-c3cnn(C(CC#N)c4cccc(Cl)c4)c3)n2)cn1 (centres unmarked) [Example 13, 3-(3-chlorophenyl)-3-(4-(7-(1-methyl-1H-pyrazol-4-yl)imidazo[1,2-c]pyrimidin-5-yl)-1H-pyrazol-1-yl)propanenitrile]
10 to 100 nM | 10 to 100 nM | 100 to 1000 nM | 10 to 100 nM | CN1CCc2ccc(-c3cc4nccn4c(-c4cnn(C(CC#N)C5CC5)c4)n3)cc2C1 (centres unmarked) [Example 55, 3-Cyclopropyl-3-(4-(7-(2-methyl-1,2,3,4-tetrahydroisoquinolin-7-yl)imidazo[1,2-c]pyrimidin-5-yl)-1H-pyrazol-1-yl)propanenitrile]
10 to 100 nM | < 10 nM | > 1000 nM | 100 to 1000 nM | Cn1cc(-c2cc3nccn3c(-c3cnn(C4(CC#N)CN(CC(F)(F)C(F)F)C4)c3)n2)cn1 [Example 80, 2-(3-(4-(7-(1-methyl-1H-pyrazol-4-yl)imidazo[1,2-c]pyrimidin-5-yl)-1H-pyrazol-1-yl)-1-(2,2,3,3-tetrafluoropropyl)azetidin-3-yl)acetonitrile]
10 to 100 nM | < 10 nM | > 1000 nM | 10 to 100 nM | Cn1cc(-c2cc3nccn3c(-c3ccn(C4(CC#N)CN(S(=O)(=O)C5CC5)C4)c3)n2)cn1 [Example 136]
